The results in this text go back to patent US5190961A, “Thiourea derivatives and antimicrobial agent and antulcer agent containing the same” (Terumo Kabushiki Kaisha, priority 1990, dated 1993).

Converted amounts (≈) assume the structure as drawn.

The subject of one experiment is ethanol peptic ulcer. As to the kind of experiment: Inhibitory action against ethanol peptic ulcer. The format is in vivo. As to conditions: Rattus norvegicus; SD male rats, 32 mg/kg oral, 1 hour before ethanol 0.5 ml/100 g; read-out: Inhibitory action against ethanol peptic ulcer, Percent inhibition of p.u. formation. The method, then:
(2) Inhibitory action against ethanol peptic ulcer
SD male rats (weighing 200-300 g) were fasted for 24 hours before oral administration of a thiourea derivative of the invention at a dose of 32 mg/kg bodyweight. One hour later, ethanol was orally given in a volume of 0.5 ml/100 g bodyweight. One hour after treating with ethanol, the rat was sacrificed with ether, and the stomach was excised and treated with formalin. Area (mm^2) of the lesions developed in the glandular stomach area was then measured. Results were expressed in sum of the lesions per animal which was referred to as peptic ulcer index.
(§1) It was confirmed that the thiourea derivatives of the invention not shown in the table also have a similar antiulcer activity.
Percent inhibition of the peptic ulcer formation (%) as shown in the table was calculated according to the same equation as mentioned above.

For experiment [1], the system named is peptic ulcer induced by water immersion restraint stress. As to the kind of experiment: Inhibitory action against the peptic ulcer induced by water immersion restraint stress. As to conditions: Rattus norvegicus; SD male rats, 32 mg/kg oral, water immersion restraint stress 23° C., 7 hours; read-out: Inhibitory action against stress peptic ulcer, Percent inhibition of p.u. formation. The format is in vivo. The procedure: (1) Inhibitory action against the peptic ulcer induced by water immersion restraint stress
SD male rats (weighing 200-300 g) were fasted for 24 hours before oral administration of a thiourea derivative of the invention at a dose of 32 mg/kg bodyweight. One hour later, the animal was put in a stress cage and loaded with water immersion restraint stress in a water bath at 23° C. Seven hours after loading with the stress, the rate was sacrificed with ether, and the stomach was excised and treated with formalin. Area (mm^2 ) of the lesions developed in the glandular stomach area was then measured. Results were expressed in sum of the lesions per animal which was referred to as peptic ulcer index.
as §1
Percent inhibition of the peptic ulcer formation (%) as shown in the table was calculated according to the following equation: [formula]

The test system of another experiment is Helicobacter pylori. Briefly: Antimicrobial activity against Helicobacter pylori (MIC). The format is cell-based, Helicobacter pylori strain NCTC 11916. As to conditions: NCTC11916, strain NCTC 11916, twofold dilution, 37° C., 3-5 days, O2 about 5%. The method, then:
(3) Antimicrobial activity against Helicobacter pylori
Antimicrobial activity of the thiourea derivatives according to the invention against Helicobacter pylori (or Campylobacter pylori) was evaluated by employing strain NCTC 11916 as a Helicobacter test organism and determining MIC (minimum inhibitory concentration) for the strain with the thiourea derivative.
The Helicobacter pylori was pre-incubated in a plate medium for 3-5 days. The medium was prepared by dissolving 38 g of a Mueller-Hinton medium (manufactured by Difco) in an appropriate amount of distilled water, sterilizing the solution in an autoclave, adding to the solution 50 ml of a horse hemolysis solution (manufactured by Nippon Seibutu Zairyou Center: Horse defibrinized blood, hemolyzed by a lyophilization treatment) and 2 ml of Skirrow, a Campylobacter selective supplement (manufactured by OXOID) containing vancomycin (5 mg), trimethoprim (2.5 mg) and polymyxin B (1250 IU) per vial (2 ml), and further an appropriate amount of distilled water to a volume of 1L in total and expanding and solidifying the solution on a dish. These antibiotics were contained for inhibition of the growth of microorganism other than Helicobacter pylori. The Helicobacter pylori pre-incubated under slightly aerobic conditions (an O2 concentration of about 5%) at 37° C. for 3-5 days was suspended in a physiological saline solution in a concentration of approximately 10^8 organisms/ml. Approximately 10-20 μl of the suspension was inoculated on a medium for MIC measurement in cross streaks. […] The DMSO solution was formed by the twofold dilution method. As in the pre-incubation, the Helicobacter pylori was cultured under slightly aerobic conditions at 37° C. for 3-5 days. After completion of the culture, growth of the microoranisms on the streaks was visually determined. The minimum concentration of the thiourea derivative in which no growth was observed was taken as MIC.
It was confirmed that the thiourea derivatives of the invention not shown in the table also have a similar antimicrobial activity.

On to `COc1cc(NC(=S)NCCCC(=O)NCCCOc2cccc(CN3CCCCC3)c2)cc(OC)c1OC` [Example 18, 1-[3-[N-[3-[3-(piperidinomethyl)phenoxy]propyl]carbamoyl]propyl]-3-(3,4,5-trimethoxyphenyl)thiourea], for which the inhibition in vivo at 32 mg/kg was 83.8% in the experiment with ethanol peptic ulcer and 60.6% in experiment [1]. Besides, the minimum inhibitory concentration (MIC) (in general, the lowest concentration found to suppress growth) against Helicobacter pylori was 6.25 µg/mL (≈ 11.2 µM).
The matching figures for `CCCCOc1ccccc1NC(=S)NCCCC(=O)NCCCOc1cccc(CN2CCCCC2)c1` [Example 16, 1-[3-[N-[3-[3-(piperidinomethyl)phenoxy]propyl]carbamoyl]propyl]-3-(O-n-buthoxyphenyl)thiourea]: 93.3%, 71.7% and 6.25 µg/mL (≈ 11.6 µM).
On the same counts, the results for `COc1cccc(C)c1NC(=S)NCCCC(=O)NCCCOc1cccc(CN2CCCCC2)c1` [Example 19, 1-[3-[N-[3-[3-(piperidinomethyl)phenoxy]propyl]carbamoyl]propyl]-3-(2-methoxy-6-methylphenyl)thiourea] are 94.6%, 90.1% and 6.25 µg/mL (≈ 12.2 µM).
On the same counts, the results for `CSc1ccccc1NC(=S)NCCCC(=O)NCCCOc1cccc(CN2CCCCC2)c1` [Example 21, 1-[3-[N-[3-[3-(piperidinomethyl)phenoxy]propyl]carbamoyl]propyl]-3-(2-methylthiophenyl)thiourea] are 81.1%, 85.5% and 6.25 µg/mL (≈ 12.1 µM).
Take `COCOc1ccccc1NC(=S)NCCCC(=O)NCCCOc1cccc(CN2CCCCC2)c1` [Example 24, 1-[3-[N-[3-[3-(piperidinomethyl)phenoxy]propyl]carbamoyl]propyl]-3-(2-methoxymethoxyphenyl)thiourea]: the inhibition in vivo at 32 mg/kg in the experiment with ethanol peptic ulcer was 70.3%; in experiment [1], 60.3%. The compound further had a minimal inhibitory concentration (MIC) against Helicobacter pylori of 12.5 µg/mL (≈ 23.6 µM).
The matching figures for `N#Cc1cccc(NC(=S)NCCCC(=O)NCCCOc2cccc(CN3CCCCC3)c2)c1` [Example 20, 1-[3-[N-[3-[3-(piperidinomethyl)phenoxy]propyl]carbamoyl]propyl]-3-(3-cyanophenyl)thiourea]: 83.5%, 70.2% and 12.5 µg/mL (≈ 25.3 µM).
